Measurements: ChEMBL document CHEMBL1795319, “Design, synthesis and antifungal evaluation of 1-(2-(2,4-difluorophenyl)-2-hydroxy-3-(1H-1,2,4-triazol-1-yl)propyl)-1H-1,2,4-triazol-5(4H)-one” (2011)
≈ marks a conversion by molar mass, not a printed value.

Tests used:
Format in all cases: functional
Candida albicans [1] = assay: Antifungal activity against Candida albicans Y0109 after 24 hrs by micro-broth dilution method; settings: Y0109, 24 h
Aspergillus fumigatus = assay: Antifungal activity against Aspergillus fumigatus by broth microdilution method
Trichophyton rubrum = assay: Antifungal activity against Trichophyton rubrum by micro-broth dilution method
Candida parapsilosis = assay: Antifungal activity against Candida parapsilosis by micro-broth dilution method; settings: Lodderomyces parapsilosis
Candida tropicalis = assay: Antifungal activity against Candida tropicalis by micro-broth dilution method
Candida albicans [2] = assay: Antifungal activity against Candida albicans SC5314 after 24 hrs by micro-broth dilution method; settings: SC5314, 24 h
Cryptococcus neoformans = assay: Antifungal activity against Cryptococcus neoformans BLS108 after 72 hrs by micro-broth dilution method; settings: BLS108, 72 h
Kluyveromyces marxianus = assay: Antifungal activity against Candida kefyr by micro-broth dilution method

## C[C@@H](c1ncncc1F)[C@](O)(Cn1cncn1)c1ccc(F)cc1F [VORICONAZOLE]
Candida albicans [1]
  MIC80: 3.9 ng/mL (≈ 0.0112 µM)
Aspergillus fumigatus
  MIC80: 3.9 ng/mL (≈ 0.0112 µM)
Trichophyton rubrum
  MIC80: 15.6 ng/mL (≈ 0.0447 µM)
Candida parapsilosis
  MIC80: 3.9 ng/mL (≈ 0.0112 µM)
Candida tropicalis
  MIC80: 3.9 ng/mL (≈ 0.0112 µM)
Candida albicans [2]
  MIC80: 3.9 ng/mL (≈ 0.0112 µM)
Cryptococcus neoformans
  MIC80: 3.9 ng/mL (≈ 0.0112 µM)
Kluyveromyces marxianus
  MIC80: 3.9 ng/mL (≈ 0.0112 µM)
